Here are results for two molecules from US10752588B2 (The Broad Institute, Inc., priority 2014, dated 2020).

SMILES strings stand for the structures. Values after ≈ are worked out from the molar mass of the structure shown.

Series [1] addresses T1, human D2R/β-arrestin (Homo sapiens (Human), UniProt P14416). Nature of the series: β-Arrestin agonist assay (PathHunter). To be noted: CHO-K1 cell line expressing human D2R/β-arrestin. The format is cell-based. Summed up: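 After compound incubation, detection reagent (Buffer:Emerald II:Galactor-Star, 19:5:1) added and luminescence or fluorescence read.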
The next series can be described thus: Plasma stability, rat. The format is in vitro ADME.
The next series can be described thus: Plasma stability, human. In kind it is in vitro ADME.
Series [2] in a line: Microsomal stability, rat. The format is in vitro ADME.
The test system of series [3] is plasma protein. Nature of the series: Plasma protein binding, rat. To be noted: plasma, read-out: Plasma Protein Binding % bound. In kind it is in vitro ADME.
A short description of series [4]: Microsomal stability, mouse.
The target of series [5] is T1, human D2R/β-arrestin. Nature of the series: cell-based. As to conditions: cAMP Antagonist, CHO-K1 cell line expressing human D2R/β-arrestin; quinpirole used as agonist.
In series [6] the target is T1, human D2R/β-arrestin. As to the kind of experiment: cell-based. As to conditions: β-arrestin Antagonist, CHO-K1 cell line expressing human D2R/β-arrestin; quinpirole used as agonist.
In series [7] the test system is plasma protein. As to the kind of experiment: Plasma protein binding, human. The format is in vitro ADME. To be noted: plasma, read-out: Plasma Protein Binding % bound.
Series [8] can be described thus: Microsomal stability, human. The format is in vitro ADME.
The subject of another series is Caco2. As to the kind of experiment: Caco2 permeability. The format is in vitro ADME. On the set-up: unit not given beside the values.
A short description of a further series: Solubility in PBS. In kind it is physicochemical. As to conditions: aqueous buffer.
A further series can be described thus: Rotarod performance. The format is in vivo. To be noted: mice, 10 or 30 mg/kg, compared with clozaril at 3 mg/kg. As to the method:
In the test, test animals are placed on a horizontally oriented, rotating cylinder (rod) suspended above a cage floor. The test animals naturally try to stay on the rotating cylinder, or rotarod, and avoid falling to the ground. Test animals are administered with various compounds (e.g., compounds of the invention or control compounds). The length of time that a given animal stays on this rotating rod is a measure of the animal's balance, coordination, physical condition, and motor-planning. The speed of the rotarod is mechanically driven, and can be held constant.
In the test, mice were placed on a horizontally oriented, rotating cylinder (rod) suspended above a cage floor, which was low enough not to injure the animal, but high enough to induce avoidance of fall. The mice naturally try to stay on the rotating cylinder, or rotarod, and avoid falling to the ground.
A general note: In the rotarod test animals must keep their balance on a rotating rod.

Series [9] concerns plasma protein. As to the kind of experiment: Plasma protein binding, mouse. The format is in vitro ADME. To be noted: plasma, read-out: Plasma Protein Binding % bound.
The target of series [10] is T1, human D2R/β-arrestin. Nature of the series: Gi/cAMP agonist assay (Lance Ultra cAMP, Forskolin). The format is cell-based. As to conditions: CHO-K1 cell line expressing human D2R/β-arrestin. Summed up: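 Cells were plated and incubated before compounds were pin-transferred and incubated for 10 min at 37 °C. Forskolin was then added to stimulate cAMP. cAMP was detected by Lance Ultra TR-FRET using Eu-cAMP tracer and ULight-anti-cAMP antibody.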

For a further series, the system named is MDR1-MDCKII. As to the kind of experiment: MDR1-MDCKII permeability assay. In kind it is in vitro ADME. The text has this:
MDR1-MDCKII Permeability Assay
This is a standard permeability assay that predicts brain penetration. It was ran by the CRO Absorption Systems (www.absorption.com/drug-discovery/permeability/cell-based/).

For another series, the target named is D2 (Homo sapiens (Human), UniProt P14416). As to the kind of experiment: D2 radioligand binding assay.
Series [11] concerns the target T1, human D2R/β-arrestin. To be noted: CHO-K1 cell line expressing human D2R/β-arrestin, β-arrestin and Gi/cAMP pathways, FIG. 1.

T1 sequence (P14416 whole entry): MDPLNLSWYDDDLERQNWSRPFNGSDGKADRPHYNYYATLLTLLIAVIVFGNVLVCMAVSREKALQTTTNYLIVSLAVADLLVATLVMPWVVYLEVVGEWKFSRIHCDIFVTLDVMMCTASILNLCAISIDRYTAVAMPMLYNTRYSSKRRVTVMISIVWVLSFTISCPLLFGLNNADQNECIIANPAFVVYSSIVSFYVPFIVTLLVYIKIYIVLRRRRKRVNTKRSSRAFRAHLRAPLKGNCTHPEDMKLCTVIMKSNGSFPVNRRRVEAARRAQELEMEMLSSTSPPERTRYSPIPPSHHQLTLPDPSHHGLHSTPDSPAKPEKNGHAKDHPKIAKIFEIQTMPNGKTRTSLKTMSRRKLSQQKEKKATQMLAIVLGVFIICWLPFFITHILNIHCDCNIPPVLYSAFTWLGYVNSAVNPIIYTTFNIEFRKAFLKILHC
Sequence of D2 (P14416 whole entry): as above

Usually EC50 stands for the midpoint of the concentration-response curve. The IC50 is the concentration that gives 50% inhibition. The solubility is the concentration that dissolves in the medium under given conditions. On to `COc1cccc(C(NC(=O)C2CCN(CCOc3ccccc3)CC2)c2ccccn2)c1` (centres unmarked) [Compound 35], for which the 50% effective concentration (EC50) at human D2R/β-arrestin [1] was > 30000 nM; on human D2R/β-arrestin [10], 1000 to 10000 nM. Further, the “Plasma Stability: % remaining after 5 hours” value in the series “Plasma stability, rat” is recorded as 99.6%; in the series “Plasma stability, human”, 100%; in “Plasma stability, mouse”, 98%. The entries for the “Microsomal Stability: % remaining after 60 minutes” value in series [2], in series [4] and in series [8] were 80%, 74% and 83%, respectively. Besides, the fraction unbound in the series on plasma protein [3] came to 0.042; in the series on plasma protein [7], 0.086; in the series on plasma protein [9], 0.074. Moreover, the IC50 on human D2R/β-arrestin [5] and on human D2R/β-arrestin [6] was 1000 to 10000 nM each time. For the same molecule, the “Caco2 A-B” value in the series with Caco2 (A-B direction) was 26.7. In addition, the “Caco2 B-A” value in the series on Caco2 (B-A direction) is reported as 46.7. The same molecule yielded a solubility in “Solubility in PBS” of 441 µM (≈ 196 µg/mL). The “catalepsy in the rotarod test” value in the series “Rotarod performance” was “promotes far less catalepsy than the known antipsychotic Clozapine at efficacious doses”.
The term Ki denotes a dissociation constant, usually derived from enzyme kinetics or from competition with a known ligand. Turning to `CN(CC1CCN(CCOc2ccccc2)CC1)C(c1ccc(Cl)cc1)c1ccccn1` (centres unmarked) [Compound 79, 1-(4-chlorophenyl)-N-methyl-N-((1-(2-phenoxyethyl)piperidin-4-yl)methyl)-1-(pyridin-2-yl)methanamine], the “MDR1-MDCKII A-B” value in the series with MDR1-MDCKII (A-B direction) came out at 6.17. Further, the “MDR1-MDCKII B-A” value with MDR1-MDCKII (B-A direction) was found to be 22.1. Further, the EC50 on human D2R/β-arrestin [1] was > 30000 nM; on human D2R/β-arrestin [10], < 100 nM. For the same molecule, the “Microsomal Stability: % remaining after 60 minutes” value in series [4] was “m0%”. Besides, the Ki on D2 lay within 100 to 1000 nM. Besides, the half-maximal inhibitory concentration (IC50) on human D2R/β-arrestin [5] was > 30000 nM; on human D2R/β-arrestin [6], 100 to 1000 nM. The “functional profile at D2R (antagonist mode)” value at human D2R/β-arrestin [11] was “representative β-arrestin biased D2R antagonists”.
